Test results: paper PMC3086806, “Mining a Cathepsin Inhibitor Library for New Antiparasitic Drug Leads” (PLoS Neglected Tropical Diseases, 2011)

What was measured:
falcipain-2 = biological target: T1, falcipain-2 (Plasmodium falciparum, UniProt Q8I6U4); assay: Falcipain-2 protease inhibition assay (Z-Leu-Arg-AMC); format: biochemical
T1 construct: made in house
T1 sequence (Q8I6U4 244-484): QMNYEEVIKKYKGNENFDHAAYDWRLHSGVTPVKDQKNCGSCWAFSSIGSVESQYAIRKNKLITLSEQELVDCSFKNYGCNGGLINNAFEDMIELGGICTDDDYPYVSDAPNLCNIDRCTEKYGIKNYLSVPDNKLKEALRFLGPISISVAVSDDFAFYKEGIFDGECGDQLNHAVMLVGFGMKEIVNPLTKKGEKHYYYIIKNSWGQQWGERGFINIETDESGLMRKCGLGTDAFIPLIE
Experimental: (§1) Recombinant cruzain, rhodesain, TbCatB, falcipain-2 and falcipain-3 were expressed as described previously, [39], [40], [41], [42]. Inhibitor stock solutions were prepared in DMSO and screened at 0.1 µM for cruzain and rhodesain, 1 µM for TbCatB and 50 nM for falcipain-3 (0.5% DMSO in assay). […] Protease inhibition assays for cruzain and rhodesain were carried out in 96 well plate format as described previously. Cruzain (4 nM), rhodesain (4 nM) or TbCatB (258 nM) was incubated with test compound in 100 mM sodium acetate, pH 5.5, containing 5 mM DTT and 0.01% Triton X-100 (buffer A), for 5 min at room temperature (the higher concentration of TbCatB was required due to its lower intrinsic activity against the fluorogenic substrate). Then buffer A containing Z-Phe-Arg-AMC (Bachem) was added to enzyme-compound mixture to give 10 µM substrate in a final assay volume of 200 µL. The rate of free AMC release was measured at excitation and emission wavelengths of 355 and 460 nm, respectively, with a microtiter plate spectrofluorimeter (SpectraMax M5, Molecular Devices) for 3 min. Percentage inhibition of test compound was calculated relative to the DMSO control (0% inhibition control). IC50 values were determined with Prism 4 software (GraphPad, San Diego, CA) using sigmoidal dose-response variable slope model.
(§2) Protease inhibition assays for falcipain-2 and falcipain-3 were carried out in 96 well plate format as described previously, [43] with modification for end-point readout. Falcipain-2 (21 nM) or falcipain-3 (78 nM) was incubated with test compound for 10 min at room temperature in 200 mM sodium acetate, pH 6, 10 mM DTT and 3.6% glycerol and 0.01% Triton X-100 (buffer B). Then buffer B containing Z-Leu-Arg-AMC (Bachem) was added to the enzyme-compound mixture to give 25 µM substrate in a final assay volume of 200 µL. After 15 min, 50 µL of 5 M acetic acid was added to each well to stop the reaction. End-point fluorescence was read in a spectrofluorimeter as above. The 0% inhibition control wells contained DMSO while 100% inhibition control wells contained 50 µM E-64 (Sigma). Percentage inhibition of test compound was calculated relative to the controls and IC50 curve fitting was performed with Prism 4 software as above.

falcipain-3 = biological target: T2, falcipain-3 (Plasmodium falciparum, UniProt Q8IIL0); assay: Falcipain-3 protease inhibition assay (Z-Leu-Arg-AMC); format: biochemical; details: read-out: IC50 falcipain-3
T2 construct: made in house
T2 sequence (Q8IIL0 243-492): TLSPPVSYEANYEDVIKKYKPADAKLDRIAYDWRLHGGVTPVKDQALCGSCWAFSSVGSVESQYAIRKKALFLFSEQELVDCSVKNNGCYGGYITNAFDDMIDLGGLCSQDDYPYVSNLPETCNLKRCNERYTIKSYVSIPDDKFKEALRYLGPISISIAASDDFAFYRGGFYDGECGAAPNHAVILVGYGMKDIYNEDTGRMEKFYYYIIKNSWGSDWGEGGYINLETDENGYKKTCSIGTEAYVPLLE
Experimental: as §1, §2

human cathepsin B = biological target: human cathepsin B; parameters: method as in data provided by Celera Genomics; details: historical data; ref data provided by Celera Genomics; read-out: Ki catB; cited from earlier work
[1] = Jurkat cell cytotoxicity assay; format: cell-based; details: human, Jurkat cells (clone E6-1), read-out: Cytotoxicity (% inhibition at 10 µM) Jurkat cells
Experimental: Jurkat cells (clone E6-1) were grown in complete RPMI-1640 medium containing 10% FBS, 50 U/mL penicillin and 50 µg/mL streptomycin (Invitrogen) at 37°C under a humidified atmosphere and 5% CO2. For cytotoxicity testing, cells were diluted to 1×10^5 per ml in complete RPMI-1640 medium. Test compound stocks were prepared in 100% DMSO and screened at 10 µM against cells (1×10^4 cells per well) in sterile Greiner 96-well flat white opaque culture plates (0.5% final DMSO concentration). The 0% inhibition control wells contained 0.5% DMSO while 100% inhibition control wells contained 40 µM staurosporine. After compound addition, plates were incubated for 40 hr at 37°C. At the end of the incubation period, 50 µL of CellTiter-Glo™ reagent (Promega Inc., Madison, WI, USA) was added to each well and plates were placed on an orbital shaker at room temperature for 2 min to induce lysis. After a further 10 min incubation without shaking to stabilize the signal, the ATP-bioluminescence of each well was determined using an Analyst HT plate reader (Molecular Devices, Sunnyvale, CA, USA). Calculations of percentage inhibition and IC50 were performed similar to those in the T. brucei brucei assay.

CCCCC(NC(=O)C(CC(C)C)NC(=O)N1CCOCC1)C(=O)c1nc2ccccc2o1 (centres unmarked) [Compound 19a]
IC50 (falcipain-2): 2.1 nM
IC50 (falcipain-3): 8.3 nM
Ki (human cathepsin B): 125 nM
cytotoxicity at 40 h, 10 µM [1]: < 5%

CCCCC(NC(=O)C(Cc1ccccc1)NC(=O)N1CCOCC1)C(=O)c1nc2ccccc2o1 (centres unmarked) [Compound 19b]
IC50 (falcipain-2): 4.4 nM
IC50 (falcipain-3): 4.9 nM
Ki (human cathepsin B): 42 nM
cytotoxicity at 40 h, 10 µM [1]: < 5%
